{
  "source": "paper PMC11369160",
  "about": "“An outer membrane porin-lipoprotein complex modulates elongasome movement to establish cell curvature in Rhodospirillum rubrum” (Nature Communications, 2024)",
  "assay_in_all_cases": "microscale thermophoresis",
  "key": {"[1]": {"biological_target": "T1, OmpA-like peptidoglycan-binding domain of R. rubrum PapS (Rhodospirillum rubrum, UniProt Q2RP23, R223A)", "T1 construct": "gene Rru_A3328; isolated C-terminal OmpA-like domain, residues 156-273; His6-SUMO tag cut by Ulp1; E. coli Rosetta(DE3)pLysS; RED-NHS labelled", "T1 sequence (Q2RP23 entry or part of it R223A)": "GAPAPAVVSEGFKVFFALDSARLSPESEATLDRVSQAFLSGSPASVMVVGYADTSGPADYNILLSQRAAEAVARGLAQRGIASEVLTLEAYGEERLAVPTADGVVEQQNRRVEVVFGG", "conditions": "MST buffer 25 mM HEPES/NaOH pH 8, 50 mM NaCl, 0.1% Tween; 25 °C; 100 nM RED-NHS labelled protein; mDAP 1.5 µM to 50 mM"}, "[2]": {"biological_target": "T2, OmpA-like peptidoglycan-binding domain of R. rubrum PapS (Rhodospirillum rubrum, UniProt Q2RP23)", "T2 construct": "gene Rru_A3328; isolated C-terminal OmpA-like domain, residues 156-273; His6-SUMO tag cut by Ulp1; E. coli Rosetta(DE3)pLysS; RED-NHS labelled", "T2 sequence (Q2RP23 entry or part of it)": "as the sequence (Q2RP23 entry or part of it R223A) above, with A68R counted along it", "text": "microscale thermophoresis on OmpA-like peptidoglycan-binding domain of R. rubrum PapS | isolated OmpA-like domain of PapS bound mDAP in vitro, albeit with lower affinity"}, "[3]": {"biological_target": "T3, A. baumannii OmpA (OmpA-like peptidoglycan-binding domain) (Acinetobacter baumannii, UniProt Q6RYW5)", "T3 construct": "gene omp38; isolated periplasmic OmpA-like domain, residues 221-339; His6-SUMO tag cut by Ulp1; E. coli Rosetta(DE3)pLysS; RED-NHS labelled", "T3 sequence (Q6RYW5 221-339)": "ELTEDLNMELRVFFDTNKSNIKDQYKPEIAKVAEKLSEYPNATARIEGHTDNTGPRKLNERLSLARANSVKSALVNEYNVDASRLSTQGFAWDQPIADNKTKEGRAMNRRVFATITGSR"}},
  "data": [
    {"smiles": "N[C@H](CCC[C@H](N)C(=O)O)C(=O)O", "note": "[mDAP]", "values": [
      {"measurement": "mDAP binding", "setting": "[1]", "value": "In vitro analysis verified that the mutant domain no longer showed mDAP-binding activity"},
      {"measurement": "Kd", "setting": "[2]", "value": 2500, "unit": "µM"},
      {"measurement": "Kd", "setting": "[3]", "value": 9, "unit": "µM"}
    ]}
  ]
}
